Measured values published in US12157741B2, “Macrocyclic inhibitors of DYRK1A” (DANA-FARBER CANCER INSTITUTE, INC., priority 2018, dated 2024).
pIC50: −log10 of the molar value.

Key:
various enzymes [1] = target: various enzymes (Homo sapiens, UniProt P00533, DEL747-749/A750P); conditions: EGFR(L747-E749del, A750P); 1 uM
Protocol: (§2) Ambit profiling from Eurofins (formerly Discoverx) was conducted in accordance with the manufacturer's instructions.

various enzymes [2] = target: various enzymes (Homo sapiens, UniProt P30530); format: binding; conditions: compound 1 uM
Protocol: (§1) Ambit profiling was conducted in accordance with the manufacturer's instructions.

various enzymes [3] = target: various enzymes (Homo sapiens, UniProt Q13627); format: binding; conditions: compound 1 uM
Protocol: as §1

various enzymes [4] = target: various enzymes (Homo sapiens, UniProt Q9NQU5); format: binding; conditions: compound 1 uM
Protocol: as §1

various enzymes [5] = format: binding; conditions: statement in words, compared with compound 48
Protocol: as §1

LRRK2 (G2019S) = target: T1, LRRK2 (G2019S) (Homo sapiens, UniProt Q5S007, G2019S); experiment: LRRK2(G2019S) enzyme assay (Promega ADP-Glo Kinase assay); format: biochemical; conditions: 25 μM ATP, read-out: Enzyme activity against LRRK2 (G2019S)
T1 construct: purchased SignalChem L10-12GG
Protocol: All LRRK2 kinase inhibition assays were conducted by using Promega™ ADP-Glo™ Kinase assay systems (Cat No. V4475).
For LRRK G2019S, each compound mixed with 0.2 μg/μL of substrate, 25 μM ATP, 16 ng of LRRK2 G2019S enzyme (SignalChem, L10-12GG). All samples were diluted with kinase reaction buffer (40 mmol/L TrisHCl, 10 mmol/L MgCl2, and 0.1 μg/μL BSA, 0.05 mM DTT). After a 2 h reaction at 25° C., ADP-Glo™ (Promega™, V9102) reagent was added and incubated at rt for 40 min. Finally, kinase detection reagent (Promega™, Cat No. V6930) was added and reacted at 25° C. for 10 min. The luminescence signals were detected by using Synergy™ Neo2 microplate reader (BioTek®). Compound inhibition curve was fitted using GraphPad Prism 8.0 software.

various enzymes [6] = target: various enzymes (Homo sapiens, UniProt O00141); experiment: Enzyme IC50 of compound 48 (Table 3); format: biochemical; conditions: SGK
various enzymes [7] = target: T2, various enzymes (Homo sapiens, UniProt P36888, D835V, form not given); experiment: Enzyme IC50 of compound 48 (Table 3); format: biochemical; conditions: read-out: Enzyme IC50; FLT3(ITD, D835V)
T2 construct: Enzyme IC50; other: FLT3(ITD, D835V)

various enzymes [8] = target: various enzymes (Homo sapiens, UniProt P36888, D835V, form not given)
various enzymes [9] = target: various enzymes (Homo sapiens, UniProt P36888, F691L, form not given)
various enzymes [10] = target: various enzymes (Homo sapiens, UniProt Q6P2M8); conditions: CAMK1B; 1 uM
Protocol: as §2

various enzymes [11] = target: various enzymes (Homo sapiens, UniProt Q9Y2I7); conditions: PIKFYVE; 1 uM
Protocol: as §2

various enzymes [12] = target: T3, various enzymes (Homo sapiens, UniProt P45985); experiment: Enzyme IC50 of compound 48 (Table 3); format: biochemical; parameters: Enzyme IC50; other: MEK4; conditions: MEK4
T3 sequence (P45985 1-399): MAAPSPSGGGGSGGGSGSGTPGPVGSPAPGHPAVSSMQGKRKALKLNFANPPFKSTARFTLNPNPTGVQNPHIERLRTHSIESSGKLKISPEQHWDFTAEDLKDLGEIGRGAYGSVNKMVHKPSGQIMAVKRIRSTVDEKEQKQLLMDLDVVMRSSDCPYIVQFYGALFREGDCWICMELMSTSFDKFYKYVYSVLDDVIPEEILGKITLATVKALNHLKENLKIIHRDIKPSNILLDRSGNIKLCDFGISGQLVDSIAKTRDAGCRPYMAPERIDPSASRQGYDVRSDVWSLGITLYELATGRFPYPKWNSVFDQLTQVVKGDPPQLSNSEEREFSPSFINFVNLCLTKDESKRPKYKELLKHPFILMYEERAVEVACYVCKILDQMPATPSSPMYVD

various enzymes [13] = target: various enzymes (Homo sapiens, UniProt Q9UKE5); experiment: Enzyme IC50 of compound 48 (Table 3); format: biochemical; parameters: Enzyme IC50; other: TNIK; conditions: TNIK
DYRK1B = target: T4, DYRK1B (Homo sapiens, UniProt Q9Y463); experiment: Invitrogen Zlyte assay, DYRK1B; format: biochemical
T4 construct: purchased Invitrogen (assay run by the vendor)

[14] = test system: various enzymes (Homo sapiens); format: binding; conditions: compound 1 uM
Protocol: as §1

various enzymes [15] = target: various enzymes (Homo sapiens, UniProt P09769); format: binding; conditions: compound 1 uM
Protocol: as §1

Sequence of various enzymes (Homo sapiens, UniProt Q9NQU5) (Q9NQU5 whole entry): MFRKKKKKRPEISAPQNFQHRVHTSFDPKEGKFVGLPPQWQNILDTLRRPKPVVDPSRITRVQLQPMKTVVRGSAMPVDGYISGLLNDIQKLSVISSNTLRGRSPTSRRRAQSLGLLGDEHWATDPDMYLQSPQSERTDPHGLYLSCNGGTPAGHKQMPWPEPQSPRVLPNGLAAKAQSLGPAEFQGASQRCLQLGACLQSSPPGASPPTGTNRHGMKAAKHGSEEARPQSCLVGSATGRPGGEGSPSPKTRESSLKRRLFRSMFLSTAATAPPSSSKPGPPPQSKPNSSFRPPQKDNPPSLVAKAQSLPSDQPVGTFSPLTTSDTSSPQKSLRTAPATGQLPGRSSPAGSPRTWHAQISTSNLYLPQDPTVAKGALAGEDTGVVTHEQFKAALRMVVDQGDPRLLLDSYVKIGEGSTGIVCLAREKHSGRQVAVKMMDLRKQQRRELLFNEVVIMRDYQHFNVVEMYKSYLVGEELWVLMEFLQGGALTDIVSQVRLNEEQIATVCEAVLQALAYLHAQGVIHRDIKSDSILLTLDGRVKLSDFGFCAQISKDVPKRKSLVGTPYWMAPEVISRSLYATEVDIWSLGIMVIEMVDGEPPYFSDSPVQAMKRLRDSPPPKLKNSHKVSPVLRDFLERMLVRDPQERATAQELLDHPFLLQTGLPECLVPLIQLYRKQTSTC
Sequence of various enzymes (Homo sapiens) (Q9NQU5 whole entry): as above
Sequence of various enzymes (Homo sapiens, UniProt Q9Y2I7) (Q9Y2I7 whole entry): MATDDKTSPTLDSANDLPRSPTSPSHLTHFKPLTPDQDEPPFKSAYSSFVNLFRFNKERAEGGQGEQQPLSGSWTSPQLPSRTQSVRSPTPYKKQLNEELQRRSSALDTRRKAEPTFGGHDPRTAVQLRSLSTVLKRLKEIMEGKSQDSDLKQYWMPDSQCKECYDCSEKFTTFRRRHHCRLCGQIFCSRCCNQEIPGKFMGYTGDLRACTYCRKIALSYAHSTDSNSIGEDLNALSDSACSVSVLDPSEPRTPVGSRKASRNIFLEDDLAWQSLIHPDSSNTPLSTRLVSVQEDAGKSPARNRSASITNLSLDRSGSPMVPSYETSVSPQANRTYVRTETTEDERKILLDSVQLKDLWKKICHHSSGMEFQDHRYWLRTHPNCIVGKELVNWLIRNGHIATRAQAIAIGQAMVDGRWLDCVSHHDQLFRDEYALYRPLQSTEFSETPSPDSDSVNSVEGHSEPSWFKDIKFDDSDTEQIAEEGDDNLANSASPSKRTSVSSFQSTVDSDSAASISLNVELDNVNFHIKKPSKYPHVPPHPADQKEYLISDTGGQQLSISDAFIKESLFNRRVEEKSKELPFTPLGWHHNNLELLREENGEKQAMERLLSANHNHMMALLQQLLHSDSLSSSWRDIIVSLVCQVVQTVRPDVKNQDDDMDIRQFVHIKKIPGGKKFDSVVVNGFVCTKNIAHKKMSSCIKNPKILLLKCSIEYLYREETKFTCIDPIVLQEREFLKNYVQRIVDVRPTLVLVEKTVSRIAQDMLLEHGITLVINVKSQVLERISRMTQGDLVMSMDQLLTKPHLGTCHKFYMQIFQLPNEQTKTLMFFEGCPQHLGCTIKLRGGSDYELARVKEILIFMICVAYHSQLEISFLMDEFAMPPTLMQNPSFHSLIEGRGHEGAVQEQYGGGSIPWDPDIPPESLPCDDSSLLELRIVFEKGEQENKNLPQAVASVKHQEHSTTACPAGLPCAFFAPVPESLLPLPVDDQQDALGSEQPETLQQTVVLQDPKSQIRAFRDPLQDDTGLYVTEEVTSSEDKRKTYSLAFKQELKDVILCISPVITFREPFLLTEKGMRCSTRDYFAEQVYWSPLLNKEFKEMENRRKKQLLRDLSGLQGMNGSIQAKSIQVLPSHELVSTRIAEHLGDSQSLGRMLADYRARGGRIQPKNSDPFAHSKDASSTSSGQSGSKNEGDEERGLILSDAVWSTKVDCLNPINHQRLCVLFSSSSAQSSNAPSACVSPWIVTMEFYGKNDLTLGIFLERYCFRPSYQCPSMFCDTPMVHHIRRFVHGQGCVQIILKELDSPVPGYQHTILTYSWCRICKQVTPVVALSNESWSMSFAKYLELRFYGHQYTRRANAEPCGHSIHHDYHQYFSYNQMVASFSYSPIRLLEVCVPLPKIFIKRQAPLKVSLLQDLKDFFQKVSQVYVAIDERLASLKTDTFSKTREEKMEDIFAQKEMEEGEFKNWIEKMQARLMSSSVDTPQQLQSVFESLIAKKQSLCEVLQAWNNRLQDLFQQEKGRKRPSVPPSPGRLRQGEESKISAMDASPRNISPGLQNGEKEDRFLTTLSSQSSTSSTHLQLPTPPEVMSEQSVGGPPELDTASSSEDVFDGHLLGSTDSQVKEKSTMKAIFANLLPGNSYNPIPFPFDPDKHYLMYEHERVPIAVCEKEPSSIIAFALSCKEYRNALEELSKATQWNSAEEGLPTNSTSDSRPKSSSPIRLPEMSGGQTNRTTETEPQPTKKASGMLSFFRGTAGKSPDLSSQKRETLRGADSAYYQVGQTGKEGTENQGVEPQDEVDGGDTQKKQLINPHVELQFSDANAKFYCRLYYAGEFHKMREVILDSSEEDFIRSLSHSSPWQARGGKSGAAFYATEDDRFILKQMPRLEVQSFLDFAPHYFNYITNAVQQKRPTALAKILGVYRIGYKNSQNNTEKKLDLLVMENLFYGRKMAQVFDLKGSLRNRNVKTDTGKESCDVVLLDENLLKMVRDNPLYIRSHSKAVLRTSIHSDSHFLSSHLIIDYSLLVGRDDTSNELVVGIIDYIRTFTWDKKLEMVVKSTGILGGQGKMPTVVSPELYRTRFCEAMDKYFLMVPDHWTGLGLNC
T4 sequence (Q9Y463 whole entry): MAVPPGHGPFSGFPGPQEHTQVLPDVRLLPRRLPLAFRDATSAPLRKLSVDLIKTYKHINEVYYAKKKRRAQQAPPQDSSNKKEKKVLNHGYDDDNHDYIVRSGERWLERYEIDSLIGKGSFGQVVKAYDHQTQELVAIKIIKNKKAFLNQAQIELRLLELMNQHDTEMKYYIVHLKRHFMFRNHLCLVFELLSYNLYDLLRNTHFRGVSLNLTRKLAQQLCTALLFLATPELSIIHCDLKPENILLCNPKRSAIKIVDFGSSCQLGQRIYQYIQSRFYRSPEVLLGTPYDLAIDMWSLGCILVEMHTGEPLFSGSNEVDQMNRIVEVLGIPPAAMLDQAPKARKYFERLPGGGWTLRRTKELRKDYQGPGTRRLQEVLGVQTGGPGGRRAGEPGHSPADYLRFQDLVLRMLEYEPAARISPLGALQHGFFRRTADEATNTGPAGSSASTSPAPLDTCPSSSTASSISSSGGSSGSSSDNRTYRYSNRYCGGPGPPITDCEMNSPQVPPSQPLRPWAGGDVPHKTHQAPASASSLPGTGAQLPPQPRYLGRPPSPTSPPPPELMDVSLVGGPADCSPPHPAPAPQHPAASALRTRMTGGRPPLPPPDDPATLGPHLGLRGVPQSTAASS
Sequence of various enzymes (Homo sapiens, UniProt Q6P2M8) (Q6P2M8 whole entry): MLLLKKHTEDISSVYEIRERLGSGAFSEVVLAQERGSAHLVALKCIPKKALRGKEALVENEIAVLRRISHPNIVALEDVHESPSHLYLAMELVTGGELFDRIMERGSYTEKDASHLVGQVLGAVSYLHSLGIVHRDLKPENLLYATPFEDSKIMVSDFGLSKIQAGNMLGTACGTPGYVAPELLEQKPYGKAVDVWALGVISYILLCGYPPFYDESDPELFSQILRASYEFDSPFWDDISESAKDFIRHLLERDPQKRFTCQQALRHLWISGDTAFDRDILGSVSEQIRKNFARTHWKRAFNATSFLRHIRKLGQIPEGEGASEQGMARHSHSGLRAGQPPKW
Sequence of various enzymes (Homo sapiens, UniProt O00141) (O00141 whole entry): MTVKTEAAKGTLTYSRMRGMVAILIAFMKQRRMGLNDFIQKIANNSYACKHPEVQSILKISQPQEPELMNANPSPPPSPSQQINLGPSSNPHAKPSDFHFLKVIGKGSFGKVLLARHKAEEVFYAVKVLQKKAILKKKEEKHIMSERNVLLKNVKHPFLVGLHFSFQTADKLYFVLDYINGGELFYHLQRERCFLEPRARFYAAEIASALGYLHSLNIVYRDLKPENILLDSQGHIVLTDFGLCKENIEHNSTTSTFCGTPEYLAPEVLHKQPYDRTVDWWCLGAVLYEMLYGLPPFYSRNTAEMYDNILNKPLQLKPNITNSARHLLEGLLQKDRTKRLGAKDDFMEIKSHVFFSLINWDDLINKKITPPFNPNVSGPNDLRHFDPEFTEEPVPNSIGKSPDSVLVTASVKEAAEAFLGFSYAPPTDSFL
Sequence of various enzymes (Homo sapiens, UniProt P09769) (P09769 whole entry): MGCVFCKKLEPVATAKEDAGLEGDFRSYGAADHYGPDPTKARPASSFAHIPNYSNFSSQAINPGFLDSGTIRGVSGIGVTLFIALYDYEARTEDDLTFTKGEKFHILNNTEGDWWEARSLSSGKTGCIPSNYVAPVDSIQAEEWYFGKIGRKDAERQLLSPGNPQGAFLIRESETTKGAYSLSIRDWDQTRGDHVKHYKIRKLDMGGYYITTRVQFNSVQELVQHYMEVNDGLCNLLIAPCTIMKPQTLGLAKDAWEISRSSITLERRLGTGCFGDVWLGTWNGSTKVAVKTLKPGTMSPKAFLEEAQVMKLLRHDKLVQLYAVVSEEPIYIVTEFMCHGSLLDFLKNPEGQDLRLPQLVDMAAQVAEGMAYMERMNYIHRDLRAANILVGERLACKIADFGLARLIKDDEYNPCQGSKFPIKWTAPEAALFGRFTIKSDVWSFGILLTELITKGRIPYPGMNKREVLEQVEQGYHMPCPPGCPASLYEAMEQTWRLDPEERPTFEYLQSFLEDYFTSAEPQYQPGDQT

CN1Cc2nn(C)cc2-c2cnc3[nH]cc(c3c2)-c2cnn(c2)CCCC1=O [Compound 41, (Z)-31,5-dimethyl-11H,21H,31H-5-aza-2(3,5)-pyrrolo[2,3-b]pyridina-1(4,1),3(4,3)-dipyrazolacyclononaphan-6-one]
Ambit profiling (various enzymes [1]): 79

CC(C)N1Cc2nn(C)cc2-c2cnc3[nH]cc(c3c2)-c2cn(nc2C(F)(F)F)CCCC1=O [Compound 45, (Z)-5-isopropyl-31-methyl-13-(trifluoromethyl)-11H,21H,31H-5-aza-2(3,5)-pyrrolo[2,3-b]pyridina-1(4,1),3(4,3)-dipyrazolacyclononaphan-6-one]
Ambit profiling: AXL (various enzymes [2]): 0
Ambit profiling: DYRK1A (various enzymes [3]): 0.3
Ambit profiling: PAK6 (various enzymes [4]): 70
selectivity for DYRK1A (Ambit profiling, Table 4) (various enzymes [5]): not as selective for DYRK1A as compound 48

CN1Cc2nn(C)c(C#N)c2-c2cnc3[nH]cc(c3c2)-c2cn(nc2C(F)(F)F)CCCC1=O [Compound 48, (Z)-31,5-dimethyl-6-oxo-13-(trifluoromethyl)-11H,21H,31H-5-aza-2(3,5)-pyrrolo[2,3-b]pyridina-1(4,1),3(4,3)-dipyrazolacyclononaphane-35-carbonitrile]
pIC50 (LRRK2 (G2019S)): < 7.00
pIC50 (various enzymes [6]): 6.67
pIC50 (various enzymes [7]): 6.45
Ambit profiling (various enzymes [8]): 2.2
Ambit profiling (various enzymes [9]): 46
Ambit profiling (various enzymes [10]): 2.9
Ambit profiling (various enzymes [11]): 94
pIC50 (various enzymes [12]): 6.76
pIC50 (various enzymes [13]): 7.06

COc1c2c(nn1C)CN(C(C)C)C(=O)CCCn1cc(c(C(F)(F)F)n1)-c1c[nH]c3ncc-2cc13 [Compound 50, (Z)-5-isopropyl-35-methoxy-31-methyl-13-(trifluoromethyl)-11H,21H,31H-5-aza-2(3,5)-pyrrolo[2,3-b]pyridina-1(4,1),3(4,3)-dipyrazolacyclononaphan-6-one]
pIC50 (DYRK1B): 6.84
Ambit profiling: PAK8 [14]: 86
Ambit profiling: FGR (various enzymes [15]): 5.2
